Laboratory results published in patent US20250122193A1, “NOVEL PYRIDOCARBAZOLIUM COMPOUNDS AND MEDICAL USES THEREOF” (MyCural Therapeutics, priority 2021, published 2025).
Blank lines part the entries; values can stand above or below the compound they belong to.

Assays:
p53 expression = p53 expression by western blot; type: cell-based; details: 5 μM, HCT116 cells
Protocol: (§1) A) Measurement of MYC mRNA expression by RTqPCR after treatment with MYCMI-7 and different topoisomerase inhibitors at indicated concentrations. […] D) Western blot analysis of p53 and p21 expression after exposure to 5 μM MYCMI-7, ellipticine or camptothecin (CPT) in HCT116 cells. E) Western blot analysis of phospho-ATM, total ATM and p53 expression after exposure to indicated concentrations of MYCMI-7 and ellipticine in A375 cells after 3 hrs treatment.
(§2) For western blot equal amounts of proteins ([…]) were separated on a 4-12% SDS-PAGE gel. Proteins were transferred to Immobilion-P membrane (Millipore) and detected by immunostaining and chemoluminescence (Immobilion western HRP substrate; Millipore). For immunoprecipitations 500-1000 μg of protein was used. […] Briefly, cells were crosslinked with 1% formaldehyde on ice for 6 minutes. Nuclear chromatin was sonicated on ice to fragments from 0.3 kb to 0.5 kb. Nuclear chromatin equivalent to 2.5×10^7 cells was immunoprecipitated with 2 μg antibody.

Recombinant human Top2a = Recombinant human Top2a (Homo sapiens, UniProt P11388); assay: Top2 decatenation assay; type: biochemical; details: for effect on TOP2A activity: 1-100 μM
Recombinant human Top2a, sequence (P11388 whole entry): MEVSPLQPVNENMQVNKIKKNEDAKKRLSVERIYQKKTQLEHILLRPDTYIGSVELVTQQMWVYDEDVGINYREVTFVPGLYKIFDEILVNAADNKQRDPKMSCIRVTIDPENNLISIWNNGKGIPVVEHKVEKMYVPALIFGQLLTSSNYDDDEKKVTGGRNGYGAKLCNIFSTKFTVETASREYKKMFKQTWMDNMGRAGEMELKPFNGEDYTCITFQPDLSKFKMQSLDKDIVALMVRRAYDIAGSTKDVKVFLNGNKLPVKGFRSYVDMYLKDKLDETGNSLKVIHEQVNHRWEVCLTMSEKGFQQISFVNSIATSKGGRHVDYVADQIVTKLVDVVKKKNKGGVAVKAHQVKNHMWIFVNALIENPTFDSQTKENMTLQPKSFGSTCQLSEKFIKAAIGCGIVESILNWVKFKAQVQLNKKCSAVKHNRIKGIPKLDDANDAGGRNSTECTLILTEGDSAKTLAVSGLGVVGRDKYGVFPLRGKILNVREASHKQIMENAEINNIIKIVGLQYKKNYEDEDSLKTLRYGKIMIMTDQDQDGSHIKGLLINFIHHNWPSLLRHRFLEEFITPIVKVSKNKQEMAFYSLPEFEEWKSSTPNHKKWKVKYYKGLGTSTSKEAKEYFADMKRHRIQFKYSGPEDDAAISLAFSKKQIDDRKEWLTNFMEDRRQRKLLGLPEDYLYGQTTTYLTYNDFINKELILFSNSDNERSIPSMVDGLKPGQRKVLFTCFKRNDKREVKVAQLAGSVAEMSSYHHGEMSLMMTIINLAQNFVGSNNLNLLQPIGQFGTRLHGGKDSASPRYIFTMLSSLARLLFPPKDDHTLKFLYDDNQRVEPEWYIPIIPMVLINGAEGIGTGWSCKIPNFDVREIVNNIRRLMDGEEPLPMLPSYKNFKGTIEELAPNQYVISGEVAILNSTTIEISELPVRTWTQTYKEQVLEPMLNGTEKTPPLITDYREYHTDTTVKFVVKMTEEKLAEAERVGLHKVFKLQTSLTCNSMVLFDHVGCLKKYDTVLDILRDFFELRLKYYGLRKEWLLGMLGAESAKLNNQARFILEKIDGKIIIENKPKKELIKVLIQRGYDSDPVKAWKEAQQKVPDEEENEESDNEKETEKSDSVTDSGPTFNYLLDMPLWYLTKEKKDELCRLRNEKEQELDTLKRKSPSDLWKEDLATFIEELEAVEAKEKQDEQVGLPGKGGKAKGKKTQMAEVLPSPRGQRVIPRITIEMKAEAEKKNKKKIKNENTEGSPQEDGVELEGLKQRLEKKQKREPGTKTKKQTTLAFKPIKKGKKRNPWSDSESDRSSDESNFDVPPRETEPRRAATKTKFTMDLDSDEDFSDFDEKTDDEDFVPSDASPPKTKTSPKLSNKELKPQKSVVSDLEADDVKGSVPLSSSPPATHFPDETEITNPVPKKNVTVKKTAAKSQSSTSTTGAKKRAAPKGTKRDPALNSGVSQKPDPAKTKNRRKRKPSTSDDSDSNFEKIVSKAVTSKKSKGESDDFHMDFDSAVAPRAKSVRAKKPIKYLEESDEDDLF
Protocol: Top2 decatenation assay: Recombinant human Top2a (15 nM) was incubated with 80 ng catenated kinetoplast DNA (Topogen, TG2013) in Top2 reaction buffer (50 mM Tris pH8, 150 mM NaCl, 10 mM MgCl2, 0.5 mM DTT, 30 μg/ml BSA) with 1-100 μM of either doxorubicin, MYCMI-7, ellipticine or camptothecin for 10 minutes at 37° C. Drug dilutions were made in a DMSO/H2O solution so that a final concentration of 1% DMSO was consistent across all samples. The reaction was stopped with the addition of SDS to a final concentration of 1% and the Top2a was digested by Proteinase K at 55° C. for 10 minutes. DNA was purified by phenol:chloroform extraction before running on a 1% agarose gel either containing or post-stained with 0.5 μg/ml ethidium bromide. The decatenated products were quantified, normalised to the Top2α+DMSO control and plotted using GraphPad Prism.
First, we utilized an in vitro TOP2A decatenation assay. TOP2 enzymes decatenate kinetoplast DNA (kDNA) converting a network of interlocking DNA rings into individual rings that can be separated by agarose gel electrophoresis.

MYCN:MAX interaction = molecular target: T1, MYCN:MAX interaction (Homo sapiens, UniProt P04198); assay: split Gaussia luciferase (GLuc) assay, MYCN:MAX; type: cell-based; details: HeLa cells
T1 construct: replacing the existing Zip-gene (GCN4) with full length MYC, MYCN or MAX cDNA; expressed in transfected cells; host or cells: HeLa
T1 sequence (P04198 1-464): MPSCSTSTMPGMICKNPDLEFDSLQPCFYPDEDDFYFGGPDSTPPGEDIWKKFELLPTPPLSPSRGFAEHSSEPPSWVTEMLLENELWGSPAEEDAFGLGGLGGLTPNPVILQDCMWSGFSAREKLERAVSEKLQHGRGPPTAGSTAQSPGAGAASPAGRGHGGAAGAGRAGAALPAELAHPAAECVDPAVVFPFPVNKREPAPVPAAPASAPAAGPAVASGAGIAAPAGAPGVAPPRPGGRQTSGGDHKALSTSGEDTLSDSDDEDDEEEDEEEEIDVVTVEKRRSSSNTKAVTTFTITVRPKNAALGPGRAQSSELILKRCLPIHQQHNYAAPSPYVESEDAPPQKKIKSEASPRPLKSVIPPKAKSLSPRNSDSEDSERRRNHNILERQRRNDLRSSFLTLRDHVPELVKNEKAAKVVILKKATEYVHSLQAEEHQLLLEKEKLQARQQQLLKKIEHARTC
Protocol: A) Molecular structure of MYCMI-7. B-E) split Gaussia luciferase (GLuc) assay. MYC or MYCN and MAX Gluc constructs were co-transfected into HeLa cells together with a firefly luciferase vector. 24 hours post transfection cells were treated with compounds, and after another 17-24 hours cells were harvested and both GLuc and firefly luciferase activities were measured. The mean of three different experiments is shown. Treatment with: B) 5 μM of MYCMI-7, 64 μM 10058-F4 or 5 μM JQ1, respectively, C) 6.5 μM MYCMI-7 on cells expressing MYC:MAX GLuc vs. GCN4:GCN4 GLuc, D) 5 μM MYCMI-7 and 5 μM ellipticine. E) 5 μM MYCMI-7 for various time points. F) in situ proximity ligation assay (isPLA). […] MYC:GAL4 was used as negative control in the isPLA assay. G) Quantification of isPLA dots. (H) Co-immunoprecipitation (co-IP) of endogenous MYC and MAX proteins from MCF7 cells after treatment with 5 μM MYCMI-7 at various times. IP=immunoprecipitation; W=western blot. I) Chromatin immunoprecipitation (ChIP) of MYC at the ODC1 target gene promoter after treatment of cells with 5 μM MYCMI-7 for 6 hours. J) MYC target gene ODC1 expression after treatment with 5 μM MYCMI-7, quantified by qPCR. […] L) Recombinant MYC bHLHZip protein domain immobilized onto a CM5 chip was subjected to various concentrations of MYCMI-7 and the complex of MYCbHLHZip-MYCMI-7 was measured as response units by SPR. […]
0.2-0.4 μg of each GLuc-construct together with 0.05 μg pCMV-LUC (firefly luciferase) were used per transfection in 12 well plates. […] After 60 min incubation at room temperature 20 μM D-luciferin was added (substrate of Firefly luciferase) and luminescence was measured in a Lumat LB9501 (Berthold) or OmegaFluostar (BMG Labtech) luminometer. Directly after, Gaussia luciferase substrate Coelenterazine (Promega) was added to a final concentration of 20 μM in a mixture with “Stop n' Glow” (Promega) and the luciferase activity was measured. The ratio between Gaussia and Firefly luciferase values were calculated and normalized to DMSO-treated control cells.

MYC:MAX interaction = MYC:MAX interaction (Homo sapiens, UniProt P01106); assay: split Gaussia luciferase (GLuc) assay, MYC:MAX; type: cell-based; set-up: replacing the existing Zip-gene (GCN4) with full length MYC, MYCN or MAX cDNA; expressed in transfected cells; host or cells: HeLa; details: HeLa cells
MYC:MAX interaction, sequence (P01106 16-454): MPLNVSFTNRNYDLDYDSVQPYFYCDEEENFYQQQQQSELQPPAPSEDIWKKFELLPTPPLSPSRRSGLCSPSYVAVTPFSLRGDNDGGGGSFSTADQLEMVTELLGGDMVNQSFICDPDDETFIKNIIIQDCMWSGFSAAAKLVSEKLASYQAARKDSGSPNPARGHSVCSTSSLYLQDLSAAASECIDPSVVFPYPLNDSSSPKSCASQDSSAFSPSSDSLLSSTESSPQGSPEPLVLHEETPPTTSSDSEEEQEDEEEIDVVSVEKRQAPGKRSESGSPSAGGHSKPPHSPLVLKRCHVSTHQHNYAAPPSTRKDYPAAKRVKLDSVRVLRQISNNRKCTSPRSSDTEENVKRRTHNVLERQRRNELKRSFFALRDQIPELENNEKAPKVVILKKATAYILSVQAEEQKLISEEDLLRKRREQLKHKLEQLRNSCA
Protocol: A) Molecular structure of MYCMI-7. B-E) split Gaussia luciferase (GLuc) assay. MYC or MYCN and MAX Gluc constructs were co-transfected into HeLa cells together with a firefly luciferase vector. 24 hours post transfection cells were treated with compounds, and after another 17-24 hours cells were harvested and both GLuc and firefly luciferase activities were measured. The mean of three different experiments is shown. Treatment with: B) 5 μM of MYCMI-7, 64 μM 10058-F4 or 5 μM JQ1, respectively, C) 6.5 μM MYCMI-7 on cells expressing MYC:MAX GLuc vs. GCN4:GCN4 GLuc, D) 5 μM MYCMI-7 and 5 μM ellipticine. E) 5 μM MYCMI-7 for various time points. F) in situ proximity ligation assay (isPLA). […] MYC:GAL4 was used as negative control in the isPLA assay. G) Quantification of isPLA dots. (H) Co-immunoprecipitation (co-IP) of endogenous MYC and MAX proteins from MCF7 cells after treatment with 5 μM MYCMI-7 at various times. IP=immunoprecipitation; W=western blot. I) Chromatin immunoprecipitation (ChIP) of MYC at the ODC1 target gene promoter after treatment of cells with 5 μM MYCMI-7 for 6 hours. J) MYC target gene ODC1 expression after treatment with 5 μM MYCMI-7, quantified by qPCR. K) ChIP of MYC at the ODC promoter in MCF7 cells after 5 μM MYCMI-7 treatment for indicated time points. L) Recombinant MYC bHLHZip protein domain immobilized onto a CM5 chip was subjected to various concentrations of MYCMI-7 and the complex of MYCbHLHZip-MYCMI-7 was measured as response units by SPR. The sensogram was produced by subtracting the blank response.
0.2-0.4 μg of each GLuc-construct together with 0.05 μg pCMV-LUC (firefly luciferase) were used per transfection in 12 well plates. 24 hours later cells were treated with compound or DMSO. After another 17 hours, the cells were harvested and lyzed in passive lysis buffer (Promega) supplemented with complete protease inhibitor (Roche). After 60 min incubation at room temperature 20 μM D-luciferin was added (substrate of Firefly luciferase) and luminescence was measured in a Lumat LB9501 (Berthold) or OmegaFluostar (BMG Labtech) luminometer. Directly after, Gaussia luciferase substrate Coelenterazine (Promega) was added to a final concentration of 20 μM in a mixture with “Stop n' Glow” (Promega) and the luciferase activity was measured. The ratio between Gaussia and Firefly luciferase values were calculated and normalized to DMSO-treated control cells.

MYC mRNA = MYC mRNA expression by RT-qPCR; type: cell-based; details: 1 μM
Protocol: as §1

[1] = tested on: Rat1 fibroblasts TGR1 (wt MYC) and HOMyc3 (reconstituted MYC); assay: WST-1 growth/viability assay, MYC-expressing Rat1 fibroblasts; type: cell-based, rat; details: TGR1, HO15.19 and HOMyc3
Protocol: A) Immortalized Rat1 fibroblasts with different MYC status; TGR1 (wt MYC), HO15.19 (MYC−/−) and HOMyc3 (HO15.19 with reconstituted MYC) were treated with indicated concentrations of MYCMI-7 for 48 hours. Cell proliferation/viability/metabolic activity was measured using the WST-1 assay. […] “Responsive” and “less responsive”; cell lines with positive and negative log 10 GI50 values, respectively. […] For the WST-1 assays the average of three different experiments performed in triplicates is shown.
Cell growth and viability assays: Cell growth and viability was estimated in triplicates with WST-1 (Roche) or Resazurin sodium salt (Sigma-Aldrich) assays in medium at 37° C. and 5% CO2 for 2 hours after which absorbance or fluorescence, respectively, was measured with an Omega Fluostar (BMG Labtech) in a 96 well plate format.

phosphorylation of ATM = assay: phospho-ATM and p53 by western blot, A375; type: cell-based; details: 5 μM, A375 cells, 3 hrs
Protocol: as §1, §2

Compound: CC[C@@]1(O)C(=O)OCc2c1cc1n(c2=O)Cc2cc3ccccc3nc2-1 [camptothecin, reference compound]
p53 expression (p53 expression): induced p53 expression | effect on TOP2A activity (Recombinant human Top2a): no effect

inhibition of MYCN:MAX GLuc interaction (MYCN:MAX interaction; 64 μM): only weak effects | inhibition of MYC:MAX GLuc interaction (MYC:MAX interaction; 64 μM): only weak effects
Compound: CCc1ccc(/C=C2/SC(=S)NC2=O)cc1 [Example 10058-F4, 10058-F4]

concentration at which TOP2A inhibition starts (Recombinant human Top2a; in vitro decatenation of kDNA): 3 µM | concentration of complete TOP2A inhibition (Recombinant human Top2a; in vitro decatenation of kDNA): 10 µM
Compound: COc1cccc2c1C(=O)c1c(O)c3c(c(O)c1C2=O)C[C@@](O)(C(=O)CO)C[C@@H]3O[C@H]1C[C@H](N)[C@H](O)[C@H](C)O1 [doxorubicin]
MYC expression (mRNA) (MYC mRNA): strongly reduced

Compound: Cc1sc2c(c1C)C(c1ccc(Cl)cc1)=N[C@@H](CC(=O)OC(C)(C)C)c1nnc(C)n1-2 [JQ1]
inhibition of MYCN:MAX GLuc interaction (MYCN:MAX interaction; 5 μM): only weak effects | inhibition of MYC:MAX GLuc interaction (MYC:MAX interaction; 5 μM): only weak effects

Compound: Cc1c2ccncc2c(C)c2c1[nH]c1ccccc12 [ellipticine, reference compound]
p53 expression (p53 expression): induced p53 expression | effect on TOP2A activity (Recombinant human Top2a): no effect | growth of Rat1 cell clones irrespective of MYC status [1]: reduced growth of all three cell clones | phosphorylation of ATM and p53 expression (DDR signaling) (phosphorylation of ATM): strongly induced | inhibition of MYC:MAX GLuc interaction (MYC:MAX interaction; 5 μM): inactive
